The target in test [1] is T1, NBTI-specific adenosine transport site (UniProt O54698).
T1 sequence (O54698 1-457): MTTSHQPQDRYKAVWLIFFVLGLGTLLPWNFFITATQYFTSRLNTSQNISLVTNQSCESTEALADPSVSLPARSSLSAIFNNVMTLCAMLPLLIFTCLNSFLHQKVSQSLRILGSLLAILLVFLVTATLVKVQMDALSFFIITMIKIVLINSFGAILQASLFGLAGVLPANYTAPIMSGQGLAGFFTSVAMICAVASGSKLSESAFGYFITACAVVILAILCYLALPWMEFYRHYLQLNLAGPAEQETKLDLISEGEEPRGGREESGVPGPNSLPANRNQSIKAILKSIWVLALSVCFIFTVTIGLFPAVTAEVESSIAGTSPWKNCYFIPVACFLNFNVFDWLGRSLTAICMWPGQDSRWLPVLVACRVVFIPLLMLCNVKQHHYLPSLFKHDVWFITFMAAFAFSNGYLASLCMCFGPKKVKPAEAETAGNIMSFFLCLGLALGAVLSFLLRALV
The experiment in a line: [3H]-NBTI binding assay. The conditions noted are these: read-out: ED50 (50% displacement of bound [3H]-NBTI); 0.5 mg neuronal membrane protein, 0.5 nM [3H]-NBTI, 30 minutes. As to the method:
Increasing concentrations of the test compounds were incubated for 30 minutes with 0.5 mg neuronal membrane protein together with 0.5 nM [^3 H]-NBTI in a Tris buffer (pH 7.4) at room temperature. The assays were quenched and membranes collected by rapid filtration. Filters were then solubilized and radioactivity determined by scintillation counting.

The subject of test [2] is platelet aggregation in human whole blood. The experiment in a line: Inhibition of platelet aggregation in human whole blood. As to conditions: 10 minutes at 37° C., 10 µM adenosine added, ADP (6-25 μM). The class given is cell-based. The procedure: Whole blood was drawn from healthy donors and collected in 0.1 vol. of sodium citrate to prevent coagulation. Platelet aggregation was measured by the impedance technique using a Whole Blood Aggregometer. The test compounds were incubated in whole blood for 10 minutes at 37° C. and 10 µM adenosine was added 5 minutes before eliciting aggregation. Aggregation was induced by addition of ADP (6-25 μM) at the minimum concentration inducing full aggregation in untreated controls.

Test [3] relates to coronary endothelial cells. The experiment in a line: Inhibition of adenosine utilization in cell culture. It counts as cell-based. As to conditions: Endothelial cell, 1 μM [3H] adenosine, 15 minutes. As to the method:
In this assay, endothelial cells were incubated with 5 μM or 50 μM of the test compound together with 1 μM [^3H] adenosine for 15 minutes. Inhibition of adenosine utilization was determined by measuring the concentration of extracellular adenosine by scintillation counting following separation by thin layer chromatography (TLC).

In test [4] the test system is longitudinal muscle from the guinea pig ileum. Put plainly: Inhibition of stimulated contraction in isolated ileum. As to conditions: electrically stimulated guinea pig ileum muscle. An excerpt:
These are detailed in Table II.

A word on the IC50: it is the concentration needed to halve the response being measured. Read a high IC50 as a need for much substance. A word on the inhibition: it is the share of the control response that was lost under treatment. A high value points to strong suppression.

`Nc1c(C(=O)NCc2cccc([N+](=O)[O-])c2)ncn1C1OC(CO)C(O)C1O` [Compound No. 28 (1-348), 5-amino-1-β-D-ribofuranosylimidazole-4-N-[(3-nitrophenyl)methyl]carboxamide]: the EC50 in test [1] amounted to 15 µM. The molecule also came in with an IC50 in test [2] (Homo sapiens, Platelet, 10 min) of 180 µM. In test [3], this molecule showed an inhibition at 5 µM of 17 ± 3% and an inhibition at 50 µM of 47 ± 2%.

Regarding `Nc1c(C(=O)NCc2ccc(Br)cc2)ncn1C1OC(CO)C(O)C1O` [Compound No. 56 (1-487), 5-Amino 1-β-D-ribofuranosyl-imidazole-4-N-[(4-bromophenyl)methyl]carboxamide], the EC50 in test [1] was found to be 32 µM. In addition, the half-inhibitory concentration (IC50) in test [2] (Homo sapiens, Platelet, 10 min) amounted to 75 µM. In test [3], this molecule had an inhibition at 5 µM of 55 ± 7% and an inhibition at 50 µM of 65 ± 9%.

As to `Nc1c(C(=O)NCc2ccc([N+](=O)[O-])cc2)ncn1C1OC(CO)C(O)C1O` [Compound No. 23 (1-343), 5-Amino-1-β-D-ribofuranosyl-imidazole-4-N-[(4-nitrophenyl)methyl]carboxamide], the EC50 in test [1] was found to be 3 µM. Besides, in test [2] (Homo sapiens, Platelet, 10 min), the half-maximal inhibitory concentration (IC50) was 38 µM. This molecule also displayed an IC50 in test [4] (Cavia porcellus) of 3 µM. In test [3], 5 µM produced 27 ± 4% inhibition and testing at 50 µM gave an inhibition of 63 ± 2%.

For `Nc1c(C(=O)NCc2ccc(Cl)cc2)ncn1C1OC(CO)C(O)C1O` [Compound No. 29 (1-349), 5-amino-1-β-D-ribofuranosylimidazole-4-N-[(4-Chlorophenyl)methyl]carboxamide], the EC50 in test [1] was determined as 100 µM. The molecule further displayed a 50% inhibitory concentration (IC50) in test [2] (Homo sapiens, Platelet, 10 min) of 90 µM. In addition, the IC50 in test [4] (Cavia porcellus) was determined as 60 µM. In test [3], this molecule displayed an inhibition at 5 µM of 41 ± 11% and an inhibition at 50 µM of 67 ± 8%.

For `NC(=O)c1nc(Sc2ccccc2)n([C@@H]2O[C@H](CO)[C@@H](O)[C@H]2O)c1N` [Compound No. 43 (1-432), 5-Amino-2-thiophenyl-1-β-D-ribofuranosylimidazole-4-carboxamide], the EC50 in test [1] amounted to 71 µM. The half-maximal inhibitory concentration (IC50) in test [2] is 620 µM; in test [4], 200 µM.

Source of the values: US8993527B2, “Methods, compositions, and formulations for preventing or reducing adverse effects in a patient” (Pericor Therapeutics, Inc., priority 2005, dated 2015).
